Results taken from ChEMBL document CHEMBL5154943, “Crystallography-Guided Optimizations of the Keap1-Nrf2 Inhibitors on the Solvent Exposed Region: From Symmetric to Asymmetric Naphthalenesulfonamides” (J Med Chem, 2022).
Values after ≈ are worked out from the molar mass of the structure shown.

What was measured:
[1] = Cmax in Sprague-Dawley rat at 5 mg/kg, iv measured upto 24 hrs by LC-MS analysis; format: ADME, organism-based; set-up: dose 5 mg/kg, time < 24 hrs, route iv; details: in vivo
[2] = Aqueous solubility of the compound in PBS at pH 7 after 24 hrs by HPLC-UV analysis; format: physicochemical
[3] = Cmax in Sprague-Dawley rat at 20 mg/kg, IG measured upto 24 hrs by LC-MS analysis; format: ADME, organism-based; set-up: dose 20 mg/kg, time < 24 hrs, route ig; details: in vivo, po
[4] = Antiinflammatory activity against LPS-induced mouse peritoneal macrophage assessed as suppression of NO level pretreated with LPS followed by compound addition and measured after 24 hrs by Griess reagent based assay; format: functional, cell-based
Keap1/Nrf2 = Keap1/Nrf2 (Homo sapiens, UniProt Q14145); assay: Inhibition of recombinant N-terminal His6-tagged human Keap1-Nrf2 (322 to 609 residues) (unknown origin) protein-protein interaction expressed in Escherichia coli (DE3) incubated for 60 mins by fluorescence anisotropy assay
Sequence of Keap1/Nrf2 (Q16236 whole entry, the tested form may be a part): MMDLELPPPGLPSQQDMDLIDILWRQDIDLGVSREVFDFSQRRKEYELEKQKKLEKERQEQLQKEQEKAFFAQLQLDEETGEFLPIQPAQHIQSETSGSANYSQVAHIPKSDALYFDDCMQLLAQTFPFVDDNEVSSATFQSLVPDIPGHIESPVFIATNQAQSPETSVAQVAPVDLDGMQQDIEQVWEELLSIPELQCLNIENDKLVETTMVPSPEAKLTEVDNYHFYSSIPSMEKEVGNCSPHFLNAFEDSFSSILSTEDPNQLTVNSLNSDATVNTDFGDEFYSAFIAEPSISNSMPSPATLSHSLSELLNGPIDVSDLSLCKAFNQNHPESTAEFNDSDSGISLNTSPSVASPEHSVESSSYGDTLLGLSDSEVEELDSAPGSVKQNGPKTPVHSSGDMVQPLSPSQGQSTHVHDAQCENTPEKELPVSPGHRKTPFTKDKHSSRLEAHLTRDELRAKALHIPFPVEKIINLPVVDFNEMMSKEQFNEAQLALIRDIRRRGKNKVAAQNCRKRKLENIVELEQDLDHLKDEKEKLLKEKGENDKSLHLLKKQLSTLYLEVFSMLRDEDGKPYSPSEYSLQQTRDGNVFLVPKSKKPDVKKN
Sequence of Keap1/Nrf2 (Q14145 whole entry, the tested form may be a part): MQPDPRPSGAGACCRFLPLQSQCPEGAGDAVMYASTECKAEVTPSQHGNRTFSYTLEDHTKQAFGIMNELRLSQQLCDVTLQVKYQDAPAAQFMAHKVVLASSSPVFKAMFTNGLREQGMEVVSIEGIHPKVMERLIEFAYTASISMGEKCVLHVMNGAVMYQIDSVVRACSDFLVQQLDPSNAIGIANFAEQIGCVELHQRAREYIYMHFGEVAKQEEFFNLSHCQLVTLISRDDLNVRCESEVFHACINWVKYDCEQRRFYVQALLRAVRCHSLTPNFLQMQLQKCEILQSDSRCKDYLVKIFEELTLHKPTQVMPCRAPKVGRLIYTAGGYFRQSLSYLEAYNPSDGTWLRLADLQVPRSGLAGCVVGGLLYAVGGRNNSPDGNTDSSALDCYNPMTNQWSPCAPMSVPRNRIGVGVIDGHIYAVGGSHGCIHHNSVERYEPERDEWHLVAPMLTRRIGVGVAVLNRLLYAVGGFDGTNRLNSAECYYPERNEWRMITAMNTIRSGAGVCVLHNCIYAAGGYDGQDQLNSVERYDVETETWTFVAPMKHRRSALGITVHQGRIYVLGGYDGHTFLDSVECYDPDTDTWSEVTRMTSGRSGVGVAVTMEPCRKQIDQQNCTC

[5] = AUC(0 to infinity) in Sprague-Dawley rat at 20 mg/kg, IG measured upto 24 hrs by LC-MS analysis; format: ADME, organism-based; set-up: dose 20 mg/kg, time < 24 hrs, route ig; details: in vivo, po
[6] = Oral bioavailability in Sprague-Dawley rat at 20 mg/kg measured upto 24 hrs by LC-MS analysis; format: ADME, organism-based; details: in vivo
[7] = MRT (0 to infinity) in Sprague-Dawley rat at 20 mg/kg, IG measured upto 24 hrs by LC-MS analysis; format: ADME, organism-based; details: in vivo, po
[8] = Aqueous solubility of the compound in PBS at pH 2 after 24 hrs by HPLC-UV analysis; format: physicochemical
[9] = Tmax in Sprague-Dawley rat at 20 mg/kg, IG measured for 24 hrs by LC-MS analysis; format: ADME, organism-based; details: in vivo, po
[10] = MRT(0 to 24 hrs) in Sprague-Dawley rat at 5 mg/kg, iv measured upto 24 hrs by LC-MS analysis; format: ADME, organism-based; details: in vivo
[11] = AUC (0 to 24 hrs) in Sprague-Dawley rat at 5 mg/kg, iv measured upto 24 hrs by LC-MS analysis; format: ADME, organism-based; set-up: time < 24 hrs, dose 5 mg/kg, route iv; details: in vivo
[12] = Half life in Sprague-Dawley rat at 20 mg/kg, IG measured upto 24 hrs by LC-MS analysis; format: ADME, organism-based; details: in vivo, po
[13] = MRT(0 to infinity) in Sprague-Dawley rat at 5 mg/kg, iv measured upto 24 hrs by LC-MS analysis; format: ADME, organism-based; details: in vivo
[14] = Tmax in Sprague-Dawley rat at 5 mg/kg, iv measured upto 24 hrs by LC-MS analysis; format: ADME, organism-based; details: in vivo
Peritoneal macrophage = assay: Cytotoxicity against mouse peritoneal macrophages assessed as reduction in cell viability measured after 24 hrs by Cell Titer-Blue assay; format: functional
[15] = MRT(0 to 24 hrs) in Sprague-Dawley rat at 20 mg/kg, IG measured upto 24 hrs by LC-MS analysis; format: ADME, organism-based; details: in vivo, po
[16] = Antiinflammatory activity against LPS-induced mouse peritoneal macrophage assessed as inhibition of TNF alpha level after 4 hrs by ELISA method; format: functional, cell-based
[17] = Half life in Sprague-Dawley rat at 5 mg/kg, iv measured upto 24 hrs by LC-MS analysis; format: ADME, organism-based; details: in vivo
[18] = AUC(0 to infinity) in Sprague-Dawley rat at 5 mg/kg, iv measured upto 24 hrs by LC-MS analysis; format: ADME, organism-based; set-up: dose 5 mg/kg, time < 24 hrs, route iv; details: in vivo
[19] = Aqueous solubility of the compound in PBS at pH 7.4 after 24 hrs by HPLC-UV analysis; format: physicochemical
[20] = AUC (0 to 24 hrs) in Sprague-Dawley rat at 20 mg/kg, IG measured upto 24 hrs by LC-MS analysis; format: ADME, organism-based; set-up: time < 24 hrs, dose 20 mg/kg, route ig; details: in vivo, po

Cmax [1]: 2630 ng/mL | solubility at 24 h [2]: 91.1 µg/mL (≈ 119 µM) | Cmax [3]: 708 ng/mL | EC50 [4]: 970 nM | Kd (Keap1/Nrf2): 210 nM | AUC(0-inf) [5]: 3700 ng·h/mL | bioavailability [6]: 19.9% | MRT inf [7]: 14 h | solubility at 24 h [8]: 902 µg/mL (≈ 1180 µM) | Tmax [9]: 1.38 h | MRT last at 24 h [10]: 4.64 h | AUC(0-t) at 24 h [11]: 4560 ng·h/mL | half-life [12]: 10.9 h | MRT inf [13]: 5.94 h | Tmax [14]: 0.72 h | MRT last at 24 h [15]: 6.71 h | EC50 [16]: 1140 nM | t1/2 [17]: 4.31 h | AUC [18]: 4779.24 ng·h/mL | solubility at 24 h [19]: 49.3 µg/mL (≈ 64.4 µM) | AUC(0-t) at 24 h [20]: 3060 ng·h/mL
Structure (SMILES): CCN1CCN(CCC(=O)Nc2ccc(S(=O)(=O)N(CC(N)=O)c3ccc(N(CC(N)=O)S(=O)(=O)c4ccc(OC)cc4)c4ccccc34)cc2)CC1
CC50 (Peritoneal macrophage): > 100000 nM
